Tests used:
[1] = system: S. aureus clinical isolate biofilms; assay: Biofilm dispersal and prevention, crystal violet 96-well assay (Example 1); format: cell-based, Staphylococcus aureus; settings: 5 mM
Procedure: (§1) Biofilm formation was performed under static conditions in polystyrene 96-well plates (Corning, Inc., Corning, N.Y.). Briefly, overnight bacterial cultures were diluted to an OD600 of 0.1 in CA-MHB and 10 μL was added to individual wells filled with 190 μl of media and incubated at 37° C. for 48 h without shaking for biofilm growth. Following incubation, culture media was removed and 200 μL media containing individual D-AA at concentrations of 5 mM-1 nM was added. Plates were incubated for an additional 24 h at 37° C. After treatment, plates were gently washed with 1× phosphate buffered saline (PBS; pH 7.4) to remove non-adherent bacteria. Biofilms (i.e. attached cells) were then stained with 0.1% (w/v) crystal violet for 10 min, washed, followed by solubilization of crystal violet with 33% (v/v) acetic acid for 10 min. Biofilm biomass was determined by measuring the absorbance at 570 nm using a microtiter plate reader. For assays measuring the ability of D-AA to block biofilm formation, cells were grown under biofilm conditions as above in the presence of media containing D-AA. Three independent experiments with a minimum of 4 replicates were performed for each experimental assay. Representative images of the plates of CV stained biofilms following treatment with D-AA, prior to solubilization, were taken using a digital camera.

[2] = system: P. aeruginosa clinical isolate biofilms; assay: as above; format: cell-based, Pseudomonas aeruginosa; settings: 5 mM
Procedure: as §1

human dermal fibroblasts = assay: CellTiter-Fluor cell viability assay; format: cell-based; settings: dermal fibroblasts, 24 h
Procedure: (§2) To observe the cellular viability of PUR/D-AA composites, human dermal fibroblasts and human osteoblasts (PromoCell) were maintained in Dulbecco's Modified Eagle Medium (DMEM; Invitrogen) supplemented with 10% Fetal Bovine Serum (FBS) and 1× penicillin/streptomycin. Human epidermal keratinocytes (HEK-001; ATCC CRL-2404) were maintained in Keratinocyte-serum free media (GIBCO) supplemented with 5 ng/mL human recombinant EGF and 2 mM L-glutamine. All cell lines were cultured at 37° C. in 5% CO2. Prior to each assay cells were seeded at 100% confluence in black-clear bottom 96-well plates. After 24 h, cells were exposed to media containing D-AA, 50 mM-1 nM, and incubated for 24-48 h at 37° C. in 5% CO2. Following treatment, cells were washed, resuspended in 100 μL of sterile saline and viability was determined using the CellTiter-Flour Cell Viability Assay (Promega) following the manufacturer's instructions. Viability assays were performed in triplicate with a minimum of 3 replicates. Viability was reported as the percentage of viable cells relative to untreated controls.
(§3) Human dermal fibroblasts and osteoblasts (PromoCell, Heidelberg, Germany) were maintained in Dulbecco's Modified Eagle Medium (DMEM; Invitrogen, Grand Island, N.Y.) supplemented with 10% Fetal Bovine Serum (FBS) and 1× penicillin/streptomycin at 37° C. in 5% CO2. Prior to each assay, cells were seeded at 100% confluence in black-clear bottom 96-well plates. After 24 h cells were exposed to media containing D-AA (1 nM-50 mM) and incubated for 24 h. Following treatment, cells were washed, re-suspended in 100 μL of sterile saline, and assessed for viability using the CellTiter-Fluor Cell Viability Assay (Promega, Madison, Wis.) following the manufacturer's instructions. Viability assays were performed in triplicate with a minimum of four replicates. Viability was reported as the percentage of viable cells relative to untreated controls.

human osteoblasts = assay: CellTiter-Fluor cell viability assay; format: cell-based; settings: 24 h
Procedure: as §2, §3

[3] = system: S. aureus clinical isolates biofilms; assay: Biofilm dispersal and prevention, crystal violet assay (Example 3); format: cell-based
Procedure: Like in Example 1, biofilm formation was assessed under static conditions using polystyrene 96-well plates (Corning, Inc.). Overnight bacterial cultures were diluted to an OD600 of 0.1 in TSB (˜10^7 CFU/mL), and 20 μL were added to individual wells filled with 180 μL of media and incubated at 37° C. for 48 h. To assess the biofilm dispersal activity of D-AAs, the culture medium from biofilms was removed after 48 h and 200 μL fresh medium containing either an individual D-AA or an equimolar mixture of D-AAs (1:1:1: D-Met:D-Pro:D-Trp) were added at the indicated concentrations. After treatment with D-AA(s) for 24 h, plates were gently washed with 1× phosphate buffered saline (PBS) to remove unattached cells, stained with 0.1% (w/v) crystal violet (Sigma Aldrich) for 10 min, rinsed with PBS, and then solubilized with 80% (v/v) ethanol. Biofilm biomass was determined by measuring the absorbance of solubilized stain at 570 nm using a microtiter plate reader. For assays measuring the ability of D-AA to block biofilm formation, cells were grown under biofilm conditions as above in the presence of media containing D-AAs. Representative images of the plates of CV-stained biofilms following treatment with D-AA prior to solubilization were taken using a digital camera. All assays were repeated in triplicate with a minimum of four technical replicates.

[4] = Release of D-AAs from PUR scaffolds in PBS (HPLC); format: physicochemical
Procedure: Also, kinetic release assays were performed on the PUR scaffolds by incorporating 10 wt % of a 1:1:1 mixture of D-Tr:D-Pro:D-Met incubated in PBS for up to 8 weeks. The medium was be sampled twice weekly and analyzed for D-AAs by HPLC.
PUR scaffolds incorporating 10 wt % of a 1:1:1 mixture of D-Met:D-Pro:D-Trp were incubated in PBS at 37° C. under static conditions for up to 8 weeks. This mixture was evaluated in vitro, in vivo and in the release kinetics tests to account for potential interactions between D-AAs during release. The medium was sampled on days 1, 2, 4, 7, 10, 14, 21, and 28 and analyzed for D-AAs by HPLC using a system equipped with a Waters 1525 binary pump and a 2487 Dual-Absorbance Detector at 200 nm. Samples of released D-AAs were eluted through an Atlantis HILIC Silica column (5 μm particle size, 4.6 mm diameter×250 mm length) using an isocratic mobile phase flowing at 1 mL/min. The mobile phase contained 2.5 mM potassium dihydrogen phosphate with pH=2.85 (A) and Acetonitrile (B) at a ratio of A25:B75. The column oven temperature was maintained at 30° C. Sample concentration was determined in reference to an external standard curve using the Waters Breeze system. Standard curves were prepared in the following concentration ranges: (1) 7.8 μg/mL to 1 mg/mL for D-Met and D-Pro and (2) […] to 100 μg/mL for D-Trp.

S. aureus Xen 36A = assay: Contaminated 6-mm excisional cutaneous wounds in mice; format: in vivo, C57BL/6 mice; settings: 2×10^6 CFU, collagen gel with 5% D-Trp, 1 and 3 days, not shown
Procedure: 6-mm excisional wounds in C57BL/6 mice (6-8 weeks), which had previously been shaved and sterilized, were made. The mice were contaminated with 2×10^6 or 2×10^7 CFU S. aureus Xen 36A (Perkin Elmer, Waltham, Mass.). Approximately 2-3 minutes following exposure to bacteria, collagen gels (hydrogel, HG) with and without 5% D-Trp were applied to the wounds for about 5 minutes before applying a Tegaderm bandage (3M, St. Paul, Minn.). Wounds were monitored daily for up to 3 days. At 1 and 3 days post-infection mice were evaluated using the IVIS (to visualized bioluminescent bacteria within wounds) and the wound tissues were harvested, homogenized, and plated on blood agar to enumerate bacteria within wound (CFU/mL/g tissue).

[5] = Release of D-Trp from collagen gel; format: physicochemical; settings: collagen gel with 5% D-Trp
[6] = concentrations exceeding 12.5 mM

## N[C@H](Cc1c[nH]c2ccccc12)C(=O)O [D-Trp, D-tryptophan]
[1]; S. aureus clinical isolates, FIGS. 3A, 3C
  biofilm dispersal against panel of clinical isolates (biofilm biomass OD570): capable of significantly dispersing biofilm formation
[1]; pre-formed S. aureus biofilms, FIG. 1
  biofilm dispersal in pre-screening of eight D-AAs: relatively more effective at dispersing biofilms
[2]; P. aeruginosa clinical isolates, FIGS. 3A, 3C
  biofilm dispersal against panel of clinical isolates (biofilm biomass OD570): capable of significantly dispersing biofilm formation
[2]; pre-formed P. aeruginosa biofilms, FIG. 1
  biofilm dispersal in pre-screening of eight D-AAs: relatively more effective at dispersing biofilms
Human dermal fibroblasts; 50 and 25 mM
  cytotoxicity: toxic
Human dermal fibroblasts; [6]
  viability (percentage of viable cells relative to untreated controls): ~60%
Human dermal fibroblasts; effective range 1-5 mM
  cytotoxicity: minimal cytotoxicity
Human osteoblasts; 50 and 25 mM
  cytotoxicity: toxic
Human osteoblasts; [6]
  viability (percentage of viable cells relative to untreated controls): ~60%
Human osteoblasts; effective range 1-5 mM
  cytotoxicity: minimal cytotoxicity
[3]; panel of clinical isolates of methicillin-resistant S. aureus (n=5), 5 mM, 24 h, FIGS. 8A, 8C
  dispersal of established biofilms (biofilm biomass): effective at dispersing established biofilms
[3]; pre-formed biofilms of four clinical isolates, 0.001-50 mM, FIG. 7
  biofilm dispersal in pre-screening of eight individual D-AAs: effective at dispersing biofilms
[4]; PUR scaffold with 10 wt % D-AA mixture
  fraction released at 4 weeks: less than 40%
[4]; PUR scaffold with 10 wt % D-AA mixture, PBS 37° C.
  cumulative release by day 28: 44%
[4]; day 1, PUR scaffold with 10 wt % 1:1:1 D-Met:D-Pro:D-Trp, PBS 37° C.
  burst release: 25%
[4]; fit of D-AA release data
  b parameter of Weibull model: 0.21
S. aureus Xen 36A
  wound contamination (bioluminescence imaging and bacterial counts): reduced contamination
[5]
  release in 1 day: about 80%
  time to complete release: ≤ 3 days

Source: US20150182667A1, “Composition with Biofilm Dispersal Agents” (Vanderbilt University, priority 2012, published 2015)
